Test results as given in article PMC6287766 (Molecular cancer therapeutics, 2017).

Tested on: murine brainstem glioma (mBSG) cells
Assay: Cell viability / proliferation IC50
Assay type: cell-based
Settings: Mus musculus, read-out: IC50, cell viability

Row | IC50 [nM] | SMILES
1 | 19 ± 20 | Cc1nc(Nc2ncc(C(=O)Nc3c(C)cccc3Cl)s2)cc(N2CCN(CCO)CC2)n1 [dasatinib]
2 | 710 ± 120 | COc1cccc2c1C(=O)c1c(O)c3c(c(O)c1C2=O)C[C@@](O)(C(=O)CO)C[C@@H]3O[C@H]1C[C@H](N)[C@H](O)[C@H](C)O1 [doxorubicin]
